In assay [1] the target is T1, Insulin-like growth factor 1 receptor (Homo sapiens, UniProt P08069). The assay can be described thus: Inhibition of GST-tagged human IGF1R expressed in Sf9-baculovirus system.
The target in assay [2] is T1, Insulin-like growth factor 1 receptor. As to the kind of experiment: Inhibition of IGF1-induced human IGF1R phosphorylation expressed in mouse NIH-3T3 cells treated 2 hrs prior to IGF1 challenge by DELFIA.
In assay [3] the target is T2, Inhibitor of nuclear factor kappa-B kinase subunit beta (Homo sapiens, UniProt O14920).
T2 sequence (O14920 whole entry): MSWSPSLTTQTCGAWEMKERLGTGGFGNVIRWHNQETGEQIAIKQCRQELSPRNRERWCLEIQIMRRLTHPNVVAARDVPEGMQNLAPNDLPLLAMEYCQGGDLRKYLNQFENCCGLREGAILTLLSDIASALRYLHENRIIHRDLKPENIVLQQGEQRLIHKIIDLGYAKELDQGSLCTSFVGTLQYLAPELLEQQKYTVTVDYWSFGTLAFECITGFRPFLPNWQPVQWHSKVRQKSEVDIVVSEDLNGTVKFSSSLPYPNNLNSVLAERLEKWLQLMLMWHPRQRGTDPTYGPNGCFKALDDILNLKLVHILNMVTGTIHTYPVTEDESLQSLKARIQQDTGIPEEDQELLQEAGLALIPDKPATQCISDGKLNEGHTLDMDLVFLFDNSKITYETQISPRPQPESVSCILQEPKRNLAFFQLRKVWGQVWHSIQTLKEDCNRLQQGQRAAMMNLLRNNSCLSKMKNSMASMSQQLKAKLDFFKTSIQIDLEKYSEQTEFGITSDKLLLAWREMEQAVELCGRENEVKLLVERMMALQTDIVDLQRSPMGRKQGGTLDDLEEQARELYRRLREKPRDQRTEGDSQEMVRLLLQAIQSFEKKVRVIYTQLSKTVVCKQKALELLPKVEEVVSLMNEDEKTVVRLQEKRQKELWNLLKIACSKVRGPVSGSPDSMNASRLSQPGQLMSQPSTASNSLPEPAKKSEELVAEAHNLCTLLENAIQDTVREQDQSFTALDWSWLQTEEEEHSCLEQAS
As to the kind of experiment: Inhibition of IKK2.

In assay [4] the target is Tyrosine-protein kinase Lyn (Homo sapiens, UniProt P07948). As to the kind of experiment: Inhibition of LYN.
Assay [5] deals with Mitogen-activated protein kinase 8 (Homo sapiens, UniProt P45983). The assay can be described thus: Inhibition of JNK1.
Assay [6] concerns the target Tyrosine-protein kinase SYK (Homo sapiens, UniProt P43405). As to the kind of experiment: Inhibition of SYK.
Assay [7] deals with Mitogen-activated protein kinase 10 (Homo sapiens, UniProt P53779). The assay can be described thus: Inhibition of JNK3.
The target in assay [8] is T3, Inhibitor of nuclear factor kappa-B kinase subunit alpha (Homo sapiens, UniProt O15111).
T3 sequence (O15111 whole entry): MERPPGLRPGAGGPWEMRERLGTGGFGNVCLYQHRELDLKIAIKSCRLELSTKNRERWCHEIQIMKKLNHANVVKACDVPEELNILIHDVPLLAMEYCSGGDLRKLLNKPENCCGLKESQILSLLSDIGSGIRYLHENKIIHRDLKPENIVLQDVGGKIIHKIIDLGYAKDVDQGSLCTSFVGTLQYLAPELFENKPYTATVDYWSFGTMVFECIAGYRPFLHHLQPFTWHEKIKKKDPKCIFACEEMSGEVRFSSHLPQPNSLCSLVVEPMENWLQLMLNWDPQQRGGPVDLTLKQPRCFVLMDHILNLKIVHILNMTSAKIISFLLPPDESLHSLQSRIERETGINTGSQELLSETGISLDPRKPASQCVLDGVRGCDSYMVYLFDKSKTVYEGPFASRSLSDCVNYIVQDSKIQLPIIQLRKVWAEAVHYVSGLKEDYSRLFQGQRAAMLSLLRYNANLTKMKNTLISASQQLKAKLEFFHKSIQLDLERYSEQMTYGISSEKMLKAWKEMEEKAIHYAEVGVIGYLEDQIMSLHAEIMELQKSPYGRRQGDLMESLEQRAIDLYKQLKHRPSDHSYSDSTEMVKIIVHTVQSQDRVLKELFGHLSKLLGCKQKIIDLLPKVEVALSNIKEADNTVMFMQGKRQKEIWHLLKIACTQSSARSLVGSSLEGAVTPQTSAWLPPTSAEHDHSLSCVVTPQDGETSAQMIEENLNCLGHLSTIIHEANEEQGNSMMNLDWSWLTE
As to the kind of experiment: Inhibition of IKK1.

This is an account of results in ChEMBL document CHEMBL1158409, “Discovery of 3,5-disubstituted-1H-pyrrolo[2,3-b]pyridines as potent inhibitors of the insulin-like growth factor-1 receptor (IGF-1R) tyrosine kinase” (Bioorg Med Chem Lett, 2009).

T1 sequence (P08069 31-736 limits assumed): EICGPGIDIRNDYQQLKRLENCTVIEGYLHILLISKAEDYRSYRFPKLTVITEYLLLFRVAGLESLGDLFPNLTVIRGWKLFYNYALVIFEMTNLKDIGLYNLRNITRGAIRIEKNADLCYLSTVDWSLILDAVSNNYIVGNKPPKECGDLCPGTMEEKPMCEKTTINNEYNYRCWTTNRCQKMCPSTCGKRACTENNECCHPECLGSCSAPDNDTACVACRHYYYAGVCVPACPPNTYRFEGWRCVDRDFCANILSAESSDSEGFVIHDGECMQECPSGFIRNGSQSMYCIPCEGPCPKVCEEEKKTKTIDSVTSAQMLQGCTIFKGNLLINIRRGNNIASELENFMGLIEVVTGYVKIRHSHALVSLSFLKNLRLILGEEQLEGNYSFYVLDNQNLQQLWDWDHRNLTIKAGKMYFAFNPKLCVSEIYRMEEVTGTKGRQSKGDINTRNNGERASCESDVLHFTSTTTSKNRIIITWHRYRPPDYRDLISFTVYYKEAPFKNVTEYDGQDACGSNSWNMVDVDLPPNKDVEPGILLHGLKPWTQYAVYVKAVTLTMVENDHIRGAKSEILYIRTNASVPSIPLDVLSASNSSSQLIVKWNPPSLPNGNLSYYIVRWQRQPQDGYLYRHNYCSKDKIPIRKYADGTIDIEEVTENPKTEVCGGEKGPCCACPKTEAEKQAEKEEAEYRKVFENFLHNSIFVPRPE
T1 sequence (P08069 741-1367 limits assumed): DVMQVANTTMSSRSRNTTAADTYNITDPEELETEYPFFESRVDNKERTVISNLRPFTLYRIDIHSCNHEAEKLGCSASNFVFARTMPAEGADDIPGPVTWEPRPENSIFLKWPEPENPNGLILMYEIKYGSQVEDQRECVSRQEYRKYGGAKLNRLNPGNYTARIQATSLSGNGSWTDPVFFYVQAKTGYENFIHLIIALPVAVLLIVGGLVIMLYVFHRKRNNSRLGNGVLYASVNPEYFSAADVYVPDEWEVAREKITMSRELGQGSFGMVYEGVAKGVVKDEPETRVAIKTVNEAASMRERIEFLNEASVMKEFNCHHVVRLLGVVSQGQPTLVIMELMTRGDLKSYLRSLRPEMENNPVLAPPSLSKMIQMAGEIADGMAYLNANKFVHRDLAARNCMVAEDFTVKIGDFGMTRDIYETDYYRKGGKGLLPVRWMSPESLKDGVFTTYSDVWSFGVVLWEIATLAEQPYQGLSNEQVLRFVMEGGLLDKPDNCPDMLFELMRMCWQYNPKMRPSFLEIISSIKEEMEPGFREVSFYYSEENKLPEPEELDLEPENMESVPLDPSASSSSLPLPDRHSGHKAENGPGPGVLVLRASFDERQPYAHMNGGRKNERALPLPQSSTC
Chain of Mitogen-activated protein kinase 8 (P45983 whole entry): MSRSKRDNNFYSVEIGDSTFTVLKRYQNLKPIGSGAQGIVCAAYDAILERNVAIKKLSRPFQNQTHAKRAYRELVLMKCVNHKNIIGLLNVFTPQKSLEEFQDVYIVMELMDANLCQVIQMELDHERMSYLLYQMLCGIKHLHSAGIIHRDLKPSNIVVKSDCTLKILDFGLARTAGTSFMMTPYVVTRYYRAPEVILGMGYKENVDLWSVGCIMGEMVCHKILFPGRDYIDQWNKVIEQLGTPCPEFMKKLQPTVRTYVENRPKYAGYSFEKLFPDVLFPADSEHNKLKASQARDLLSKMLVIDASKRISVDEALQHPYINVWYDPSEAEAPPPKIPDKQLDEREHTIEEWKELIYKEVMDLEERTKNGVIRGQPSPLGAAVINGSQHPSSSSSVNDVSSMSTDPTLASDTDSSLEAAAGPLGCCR
Chain of Tyrosine-protein kinase Lyn (P07948 whole entry): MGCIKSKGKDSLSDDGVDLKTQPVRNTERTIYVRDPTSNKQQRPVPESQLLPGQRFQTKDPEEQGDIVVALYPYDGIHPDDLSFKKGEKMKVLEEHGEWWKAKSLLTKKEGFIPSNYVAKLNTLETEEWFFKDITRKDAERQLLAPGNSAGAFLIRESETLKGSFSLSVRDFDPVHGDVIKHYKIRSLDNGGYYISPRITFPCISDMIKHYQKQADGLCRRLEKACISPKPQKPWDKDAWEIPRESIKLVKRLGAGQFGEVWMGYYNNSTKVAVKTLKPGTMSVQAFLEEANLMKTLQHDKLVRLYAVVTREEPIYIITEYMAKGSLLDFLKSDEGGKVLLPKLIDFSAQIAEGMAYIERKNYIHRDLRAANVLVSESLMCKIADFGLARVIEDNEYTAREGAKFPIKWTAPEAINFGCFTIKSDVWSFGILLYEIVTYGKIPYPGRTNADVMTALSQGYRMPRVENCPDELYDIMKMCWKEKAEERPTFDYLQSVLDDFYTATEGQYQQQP
Chain of Mitogen-activated protein kinase 10 (P53779 whole entry): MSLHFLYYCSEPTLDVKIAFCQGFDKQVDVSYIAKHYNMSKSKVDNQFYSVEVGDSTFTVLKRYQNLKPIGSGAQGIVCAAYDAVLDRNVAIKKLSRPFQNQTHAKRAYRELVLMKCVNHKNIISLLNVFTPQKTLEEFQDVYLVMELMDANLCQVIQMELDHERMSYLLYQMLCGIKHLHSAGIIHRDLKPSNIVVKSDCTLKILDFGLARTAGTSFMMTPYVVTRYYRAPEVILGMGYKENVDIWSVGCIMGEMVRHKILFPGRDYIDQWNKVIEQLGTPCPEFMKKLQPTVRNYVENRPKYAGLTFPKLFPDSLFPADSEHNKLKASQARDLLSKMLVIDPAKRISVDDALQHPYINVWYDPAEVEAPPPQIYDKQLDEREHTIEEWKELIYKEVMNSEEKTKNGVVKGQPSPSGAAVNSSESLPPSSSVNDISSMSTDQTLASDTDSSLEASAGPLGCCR

The IC50 is the concentration needed to halve the response being measured. A high value points to lower potency. In assay [1], `O=C(Nc1cccc(Cl)c1)Nc1cccc(-c2c[nH]c3ncc(-c4ccccc4)cc23)c1` had an IC50 of 1020 nM.

With `CN(C)C(=O)c1cccc(-c2cnc3[nH]cc(-c4cccc(NC(=O)Nc5ccc(Oc6ccccc6)cc5)c4)c3c2)c1`, the IC50 is 3070 nM in assay [2] and 2040 nM in assay [1].

For `O=C(Nc1cccc(-c2c[nH]c3ncc(-c4ccccc4)cc23)c1)Nc1ccc(C(F)(F)F)cc1F`, the IC50 in assay [1] turned out to be 1260 nM.

Take `CN(C)C(=O)c1cccc(-c2cnc3[nH]cc(-c4cccc(NC(=O)Nc5ccccc5Oc5ccccc5)c4)c3c2)c1`: the IC50 is 68 nM in assay [2] and 21 nM in assay [1].

As for `CN(C)CCNC(=O)c1ccc(-c2cnc3[nH]cc(-c4cccc(NC(=O)Nc5ccc(C(F)(F)F)cc5F)c4)c3c2)cc1`, it took 36 nM to reach half-maximal inhibition in assay [1] (IC50).

For `O=C(O)CCc1ccc(-c2cnc3[nH]cc(-c4cccc(NC(=O)Nc5ccccc5Oc5ccccc5)c4)c3c2)cc1`, the IC50 in assay [2] is 3620 nM; in assay [1], 210 nM.

With `O=C(Nc1cccc(-c2c[nH]c3ncc(-c4ccoc4)cc23)c1)Nc1ccccc1Oc1ccccc1`, the IC50 in assay [2] was found to be 1260 nM; in assay [1], 251 nM.

`O=C(Nc1cccc(-c2c[nH]c3ncc(-c4cccc(F)c4)cc23)c1)Nc1ccc(C(F)(F)F)cc1F` showed an IC50 in assay [1] of 605 nM.

Take `COc1ccc(-c2cnc3[nH]cc(-c4cccc(NC(=O)Nc5ccc(C(F)(F)F)cc5F)c4)c3c2)cc1OC`: it took 2200 nM to reach half-maximal inhibition in assay [1] (IC50).

In the case of `CN(C)C(=O)c1cccc(-c2cnc3[nH]cc(-c4cccc(NC(=O)Nc5cccc(Oc6ccccc6)c5)c4)c3c2)c1`, the values for the IC50 in assay [2] and in assay [1] were 961 nM and 212 nM, respectively.

Regarding `CN(C)CCNC(=O)c1ccc(-c2cnc3[nH]cc(-c4cccc(NC(=O)Nc5ccccc5Oc5ccccc5)c4)c3c2)cc1`, the IC50 in assay [2] came out at 415 nM; in assay [1], 4 nM.

Take `CN1CCN(C(=O)c2ccc(-c3cnc4[nH]cc(-c5cccc(NC(=O)Nc6ccc(C(F)(F)F)cc6F)c5)c4c3)cc2)CC1`: it took 286 nM to reach half-maximal inhibition in assay [1] (IC50).

On to `CN(C)CCNC(=O)c1cccc(-c2cnc3[nH]cc(-c4cccc(NC(=O)Nc5ccccc5Oc5ccccc5)c4)c3c2)c1`, for which the IC50 in assay [1] was 4 nM.

Molecule `CN1CCN(C(=O)c2cccc(-c3cnc4[nH]cc(-c5cccc(NC(=O)Nc6ccc(C(F)(F)F)cc6F)c5)c4c3)c2)CC1` returned an IC50 in assay [1] of 335 nM.

`CN(C)CCNC(=O)c1cccc(-c2cnc3[nH]cc(-c4cccc(NC(=O)Nc5ccc(C(F)(F)F)cc5F)c4)c3c2)c1`: the IC50 in assay [1] turned out to be 67 nM.

In turn, `Nc1ccc(-c2cnc3[nH]cc(-c4cccc(NC(=O)Nc5ccc(C(F)(F)F)cc5F)c4)c3c2)cc1` gave an IC50 in assay [1] of 200 nM.

As to `CN(C)C(=O)c1cccc(-c2cnc3[nH]cc(-c4cccc(NC(=O)Nc5ccccc5OCc5ccccc5)c4)c3c2)c1`, the values for the IC50 in assay [2] and in assay [1] were 517 nM and 132 nM, respectively.

`O=C(Nc1ccccc1)Nc1cccc(-c2c[nH]c3ncc(-c4ccccc4)cc23)c1` gave an IC50 in assay [1] of 749 nM.

Turning to `CN(C)C(=O)c1ccc(-c2cnc3[nH]cc(-c4cccc(NC(=O)Nc5ccccc5Oc5ccccc5)c4)c3c2)cc1`, the IC50 in assay [2] came to 128 nM; in assay [1] it was 31 nM.

As to `CN(C)C(=O)c1cccc(-c2cnc3[nH]cc(-c4cccc(NC(=O)Nc5ccccc5Nc5ccccc5)c4)c3c2)c1`, the IC50 in assay [2] worked out at 407 nM; in assay [1] it was 39 nM.

For `CN(C)S(=O)(=O)c1ccc(-c2cnc3[nH]cc(-c4cccc(NC(=O)Nc5ccccc5Oc5ccccc5)c4)c3c2)cc1`, the IC50 in assay [2] came to 20800 nM.

In the case of `O=C(Nc1cccc(-c2c[nH]c3ncc(-c4cccc(C(=O)O)c4)cc23)c1)Nc1ccccc1Oc1ccccc1`, the results for the IC50 in assay [2] and in assay [1] were 1040 nM and 184 nM, respectively.

In the case of `CN(C)S(=O)(=O)c1cccc(-c2cnc3[nH]cc(-c4cccc(NC(=O)Nc5ccccc5Oc5ccccc5)c4)c3c2)c1`, the IC50 in assay [2] was 1120 nM; in assay [1] it was 57 nM.

`O=C(Nc1cccc(-c2c[nH]c3ncc(-c4ccccc4)cc23)c1)Nc1ccccc1Oc1ccccc1`: the IC50 was determined as 693 nM in assay [2] and 127 nM in assay [1].

Regarding `NCc1ccc(-c2cnc3[nH]cc(-c4cccc(NC(=O)Nc5cccc(Cl)c5)c4)c3c2)cc1`, in assay [1], the IC50 is 20 nM.

`NCc1ccc(-c2cnc3[nH]cc(-c4cccc(NC(=O)Nc5ccc(C(F)(F)F)cc5F)c4)c3c2)cc1`: the IC50 was 79 nM in assay [3]; 40 nM in assay [4]; 79 nM in assay [5]; 50 nM in assay [1]; 80 nM in assay [6]; 250 nM in assay [7]. The molecule also yielded an IC50 in assay [8] of 32 nM.

On to `Nc1cccc(-c2cnc3[nH]cc(-c4cccc(NC(=O)Nc5ccc(C(F)(F)F)cc5F)c4)c3c2)c1`, for which, in assay [1], the IC50 stood at 242 nM.
